Experimental findings from patent US20070254309A1, “Methods for Assessing Embryo Viability” (Northern Sydney and Central Coast Area Health Service, priority 2006, published 2007) are described below.

The test system of the assay is p53. In words: Western blot quantitation of p53 released into embryo culture media. The format is cell-based, mouse. The conditions noted are these: embryos cultured in modHTF in the absence of Paf, compared with 0.1 μM Paf supplement; FIG. 3.

Experimental: Embryos were collected and washed 3 times in cold PBS and transferred in a maximum volume of 1.5 μl PBS. Embryo culture media aliquots had embryos and all cells removed and then subjected to freeze drying. The lyophilized proteins were redissolved in 1.5 μl of water. Embryo or reconstituted culture media was mixed with 1.5 μl of 2X extraction buffer (2X PBS, 2% Triton X-100, 24 mM deoxycholic acid, 0.2% sodium dodecyl sulfate, 20 mM NaF, 20 mM Na4P2O7, 2 mM PMSF, 3.08 μM Aprotinin, 42 μM Leupeptin and 2.91 μM Pepstatin A-all from Sigma). The embryos were lysed by three cycles of freezing in liquid nitrogen and thawing (with vortexing). […]
Proteins were blotted into PVDF membranes (Hybond-P, Amersham Pharmacia) in a semi-dry blotting apparatus overnight using transfer buffer (12 mM Tris PH 7.0, 96 mM Glycine and 20% methanol). […] Membranes were probed with 1:500 diluted anti P53 antibody overnight at 4° C. in 2.5% skim milk, and detected with 1:500 diluted horse radish peroxidase (Jackson ImmunoResearch Laboratories, West Grove, Pa., USA) conjugated mouse antibody. […]
p53 was detected by Western blot as described above and densitometry was performed using Scion Image software (Scion Corporation, Frederick, Md., USA).

For the substance “1-o-octadecyl/hexadecyl-2-acetyl-sn-glycero-3-phosphocholine [Paf]”, the “extra-embryonic concentration of p53” value was “higher”.
